Source: ChEMBL document CHEMBL1629585, “Nationwide survey of CTX-M-type extended-spectrum beta-lactamases among Klebsiella pneumoniae isolates in Slovenian hospitals” (2009)
≈ marks a conversion by molar mass, not a printed value.

What was measured:
[1] = test system: Klebsiella pneumoniae; test: Antibacterial activity against Klebsiella pneumoniae B expressing CTX-M group 1 beta-lactamase by Etest method; type: functional
[2] = test system: Klebsiella pneumoniae; test: Antibacterial activity against Klebsiella pneumoniae D expressing CTX-M group 1 beta-lactamase by Etest method; type: functional
[3] = test system: Escherichia coli; test: Antibacterial activity against rifampicin resistant Escherichia coli J53-2 by Etest method
[4] = test system: Klebsiella pneumoniae; test: Antibacterial activity against Klebsiella pneumoniae A expressing CTX-M group 1 beta-lactamase by Etest method; type: functional
[5] = test system: Escherichia coli; test: Antibacterial activity against Escherichia coli TrC B expressing Klebsiella pneumoniae B blaCTX-M beta-lactamase by Etest method; type: functional
[6] = test system: Escherichia coli; test: Antibacterial activity against Escherichia coli TrC A expressing Klebsiella pneumoniae A blaCTX-M beta-lactamase by Etest method; type: functional
[7] = test system: Escherichia coli; test: Antibacterial activity against Escherichia coli TrC C expressing Klebsiella pneumoniae C blaCTX-M beta-lactamase by Etest method; type: functional
[8] = test system: Klebsiella pneumoniae; test: Antibacterial activity against Klebsiella pneumoniae expressing CTX-M group 1 beta-lactamase by Etest method; type: functional
[9] = test system: Klebsiella pneumoniae; test: Antibacterial activity against Klebsiella pneumoniae C expressing CTX-M group 1 beta-lactamase by Etest method; type: functional
[10] = test system: Escherichia coli; test: Antibacterial activity against Escherichia coli TrC B expressing Klebsiella pneumoniae B blaCTX-M beta-lactamase by Etest method in presence of clavulanic acid
[11] = test system: Klebsiella pneumoniae; test: Antibacterial activity against Klebsiella pneumoniae D expressing CTX-M group 1 beta-lactamase by Etest method in presence of clavulanic acid; type: functional
[12] = test system: Klebsiella pneumoniae; test: Antibacterial activity against Klebsiella pneumoniae B expressing CTX-M group 1 beta-lactamase by Etest method in presence of clavulanic acid; type: functional
[13] = test system: Escherichia coli; test: Antibacterial activity against Escherichia coli TrC C expressing Klebsiella pneumoniae C blaCTX-M beta-lactamase by Etest method in presence of clavulanic acid
[14] = test system: Klebsiella pneumoniae; test: Antibacterial activity against Klebsiella pneumoniae expressing CTX-M group 1 beta-lactamase by Etest method in presence of clavulanic acid; type: functional
[15] = test system: Klebsiella pneumoniae; test: Antibacterial activity against Klebsiella pneumoniae C expressing CTX-M group 1 beta-lactamase by Etest method in presence of clavulanic acid; type: functional
[16] = test system: Klebsiella pneumoniae; test: Antibacterial activity against Klebsiella pneumoniae A expressing CTX-M group 1 beta-lactamase by Etest method in presence of clavulanic acid; type: functional
[17] = test system: Escherichia coli; test: Antibacterial activity against rifampicin resistant Escherichia coli J53-2 by Etest method in presence of clavulanic acid; type: functional
[18] = test system: Escherichia coli; test: Antibacterial activity against Escherichia coli TrC A expressing Klebsiella pneumoniae A blaCTX-M beta-lactamase by Etest method in presence of clavulanic acid

| SMILES | MIC [1] [µg/mL] | MIC50 [1] [µg/mL] | MIC90 [1] [µg/mL] | MIC [2] [µg/mL] | MIC90 [2] [µg/mL] | MIC [3] [µg/mL] | MIC50 [2] [µg/mL] | MIC [4] [µg/mL] | MIC50 [4] [µg/mL] | MIC90 [4] [µg/mL] | MIC [5] [µg/mL] | MIC [6] [µg/mL] | MIC [7] [µg/mL] | MIC [8] [µg/mL] | MIC50 [8] [µg/mL] | MIC90 [8] [µg/mL] | MIC [9] [µg/mL] | MIC50 [9] [µg/mL] | MIC90 [9] [µg/mL] | MIC [10] [µg/mL] | other results |
| --- | --- | --- | --- | --- | --- | --- | --- | --- | --- | --- | --- | --- | --- | --- | --- | --- | --- | --- | --- | --- | --- |
| CO/N=C(\C(=O)N[C@@H]1C(=O)N2C(C(=O)[O-])=C(C[N+]3(C)CCCC3)CS[C@H]12)c1csc(N)n1 | 16 (≈ 33.3 µM) | 16 (≈ 33.3 µM) | 48 (≈ 99.9 µM) | 32 (≈ 66.6 µM) | > 256 | – | – | – | – | – | – | – | – | – | – | – | – | – | – | – | – |
| NCC[C@H](O)C(=O)N[C@@H]1C[C@H](N)[C@@H](O[C@H]2O[C@H](CN)[C@@H](O)[C@H](O)[C@H]2O)[C@H](O)[C@H]1O[C@H]1O[C@H](CO)[C@@H](O)[C@H](N)[C@H]1O [AMIKACIN] | 4 (≈ 6.83 µM) | 6 (≈ 10.2 µM) | 12 (≈ 20.5 µM) | 2 (≈ 3.42 µM) | 16 (≈ 27.3 µM) | 1 (≈ 1.71 µM) | 6 (≈ 10.2 µM) | 2 (≈ 3.42 µM) | 48 (≈ 82 µM) | 96 (≈ 164 µM) | 4 (≈ 6.83 µM) | 2 (≈ 3.42 µM) | 4 (≈ 6.83 µM) | 2 (≈ 3.42 µM) | 16 (≈ 27.3 µM) | 32 (≈ 54.6 µM) | 1.5 (≈ 2.56 µM) | 6 (≈ 10.2 µM) | 16 (≈ 27.3 µM) | – | – |
| CC1(C)S[C@@H]2[C@H](NC(=O)[C@H](N)c3ccc(O)cc3)C(=O)N2[C@H]1C(=O)O [AMOXICILLIN] | 12 (≈ 32.8 µM) | 16 (≈ 43.8 µM) | 16 (≈ 43.8 µM) | 6 (≈ 16.4 µM) | 16 (≈ 43.8 µM) | – | 16 (≈ 43.8 µM) | 4 (≈ 10.9 µM) | 8 (≈ 21.9 µM) | 8 (≈ 21.9 µM) | – | – | – | 8 (≈ 21.9 µM) | 16 (≈ 43.8 µM) | > 256 | 6 (≈ 16.4 µM) | 16 (≈ 43.8 µM) | 64 (≈ 175 µM) | – | – |
| CO/N=C(\C(=O)N[C@@H]1C(=O)N2C(C(=O)O)=C(COC(C)=O)CS[C@H]12)c1csc(N)n1 [CEFOTAXIME] | 96 (≈ 211 µM) | > 256 | > 256 | > 256 | > 256 | 0.25 (≈ 0.549 µM) | > 256 | 64 (≈ 141 µM) | > 256 | > 256 | 256 (≈ 562 µM) | 256 (≈ 562 µM) | 256 (≈ 562 µM) | 48 (≈ 105 µM) | > 256 | > 256 | > 256 | > 256 | > 256 | 0.125 | MIC [11]: 0.047 µg/mL; MIC50 [11]: 0.047 µg/mL; MIC90 [11]: 0.125 µg/mL; MIC [12]: 0.047 µg/mL; MIC50 [12]: 0.094 µg/mL; MIC90 [12]: 0.094 µg/mL; MIC [13]: 0.125 µg/mL; MIC [14]: 0.032 µg/mL; MIC50 [14]: 0.047 µg/mL; MIC90 [14]: > 1 µg/mL; MIC [15]: 0.047 µg/mL; MIC50 [15]: 0.125 µg/mL; MIC90 [15]: > 1 µg/mL; MIC [16]: 0.023 µg/mL; MIC50 [16]: 0.023 µg/mL; MIC90 [16]: 0.19 µg/mL; MIC [17]: ≤ 0.06 µg/mL; MIC [18]: 0.125 µg/mL |
| CO[C@@]1(NC(=O)Cc2cccs2)C(=O)N2C(C(=O)O)=C(COC(N)=O)CS[C@@H]21 [CEFOXITIN] | 8 (≈ 18.7 µM) | 8 (≈ 18.7 µM) | 16 (≈ 37.4 µM) | 3 (≈ 7.02 µM) | 16 (≈ 37.4 µM) | 8 (≈ 18.7 µM) | 4 (≈ 9.36 µM) | 3 (≈ 7.02 µM) | 4 (≈ 9.36 µM) | 24 (≈ 56.1 µM) | 8 (≈ 18.7 µM) | 16 (≈ 37.4 µM) | 8 (≈ 18.7 µM) | 1.5 (≈ 3.51 µM) | 3 (≈ 7.02 µM) | 48 (≈ 112 µM) | 8 (≈ 18.7 µM) | 12 (≈ 28.1 µM) | 48 (≈ 112 µM) | – | – |
| CC(C)(O/N=C(\C(=O)N[C@@H]1C(=O)N2C(C(=O)[O-])=C(C[n+]3ccccc3)CS[C@H]12)c1csc(N)n1)C(=O)O [CEFTAZIDIME] | 24 (≈ 43.9 µM) | 32 (≈ 58.5 µM) | 64 (≈ 117 µM) | 24 (≈ 43.9 µM) | 128 (≈ 234 µM) | 0.5 (≈ 0.915 µM) | 48 (≈ 87.8 µM) | 16 (≈ 29.3 µM) | 32 (≈ 58.5 µM) | 96 (≈ 176 µM) | 64 (≈ 117 µM) | 32 (≈ 58.5 µM) | 128 (≈ 234 µM) | 4 (≈ 7.32 µM) | 48 (≈ 87.8 µM) | 128 (≈ 234 µM) | 16 (≈ 29.3 µM) | 192 (≈ 351 µM) | > 256 | 0.5 | MIC [11]: 0.19 µg/mL; MIC50 [11]: 0.38 µg/mL; MIC90 [11]: 0.5 µg/mL; MIC [12]: 0.25 µg/mL; MIC50 [12]: 0.38 µg/mL; MIC90 [12]: 0.5 µg/mL; MIC [13]: 0.5 µg/mL; MIC [14]: 0.125 µg/mL; MIC50 [14]: 0.25 µg/mL; MIC90 [14]: > 4 µg/mL; MIC [15]: 0.38 µg/mL; MIC50 [15]: 0.75 µg/mL; MIC90 [15]: 1 µg/mL; MIC [16]: 0.19 µg/mL; MIC50 [16]: 0.25 µg/mL; MIC90 [16]: 0.5 µg/mL; MIC [17]: 0.25 µg/mL; MIC [18]: 0.5 µg/mL |
